Measured values: article PMC8541992, “Safety, pharmacokinetics, and preliminary efficacy of the PARP inhibitor talazoparib in Japanese patients with advanced solid tumors: phase 1 study” (Investigational New Drugs, 2021)
Where two headings read alike, the source gives them in different places.

Key:
PARP on DNA = tested on: PARP on DNA; design: method as in PMID 24356813; details: compared with other PARP inhibitors under investigation or approved in Japan; cited from earlier work
[1] = tested on: non-Japanese patients with advanced breast cancer; design: method as in PMID 32162822; details: EMBRACA study; cited from earlier work
[2] = tested on: HER2-negative advanced breast cancer with a germline BRCA1/2 mutation; design: method as in PMID 30110579, PMID 30124753; details: 1 mg QD versus chemotherapy; 95% CI 0.41 to 0.71, P < 0.001; cited from earlier work
[3] = tested on: Japanese patients with locally advanced or metastatic solid tumors; test: Phase 1 dose-escalation study: safety (DLTs, TEAEs)
Description: This is an ongoing open-label, non-randomized, phase 1 study of the PARP inhibitor, talazoparib, in Japanese patients with locally advanced or metastatic solid tumors regardless of mutations in DDR-related genes who are resistant to standard therapies or for whom no standard therapy is available (ClinicalTrials.gov NCT03343054). The study comprises a dose-escalation phase and a dose-expansion phase conducted in 8 Japanese centers (Supplementary Fig. 1). The objective of the initial dose-escalation phase was to investigate the safety, PK (single-dose and steady-state), and preliminary antitumor activity of single-agent talazoparib in sequential cohorts of patients with advanced solid malignancies. A modified 3 + 3 dose-escalation scheme was used to determine the recommended phase 2 dose in Japanese patients; up to 3 patients could be enrolled simultaneously in a cohort although sometimes due to logistical or clinical reasons more than 3 but no more than 9 patients were enrolled at each dose level. Successive cohorts of patients received escalating doses of talazoparib on an outpatient basis starting from 0.75 mg/day. To understand the single-dose safety and single-dose PK assessments of talazoparib, a lead-in period preceding the continuous daily doses was included. Data for the dose-escalation phase are reported here (data cut-off January 2020).
Eligible patients were assigned to one of two talazoparib treatment groups (dose levels). Successive cohorts of patients received talazoparib dosed orally at 0.75 mg QD (3 capsules of 0.25 mg) or 1 mg QD (4 capsules of 0.25 mg), with or without food, on an outpatient basis according to a modified 3 + 3 dose-escalation scheme. On Day −7 (lead-in visit), patients received a single dose of talazoparib, followed by continuous daily dosing from Day 1 of each 28-day cycle. Patients continued to receive talazoparib until either disease progression, patient refusal of study treatment, or unacceptable toxicity. Dose modifications were allowed depending on the type and severity of the toxicity encountered. To continue talazoparib, patients were required to have adequate bone marrow functions (hemoglobin ≥8.0 g/dL, absolute neutrophil count ≥1000/mm^3, platelets ≥50,000/mm^3). If grade 1 or grade 2 treatment-related toxicity occurred (other than renal impairment), dose interruption or dose reduction were not required. Daily dosing was paused for grade ≥3 adverse events (AEs) considered related to talazoparib. Supportive care including blood products for hematologic toxicities was allowed as appropriate per local guidance. Talazoparib dosing could resume at the next lower dose level (e.g., from 1.0 mg/day to 0.75 mg/day; 0.75 mg/day to 0.5 mg/day; 0.5 mg/day to 0.25 mg/day) when toxicity resolved to grade 1 or returned to baseline. […]

PARP = tested on: PARP; design: method as in PMID 24356813, PMID 31296812; details: PARP inhibition; read-out: Half-maximal inhibitory concentration; cited from earlier work
[4] = Phase 1 study: single- and multiple-dose plasma pharmacokinetics; type: in vivo, human (Japanese patients); details: for Rac (ratio of AUCtau after multiple doses/AUCtau after single dose) / Rss (ratio of AUCtau after multiple doses/AUCinf after single dose) / Tmax: median (range); for Cmax / AUC / AUC(0-inf) / Cmin: geometric mean (geometric %CV); for half-life: read-out: t1/2 (terminal half-life) (converted); for AUC: AUCtau = AUC24
Method: PK parameters following single- and multiple-dose administration of single-agent talazoparib, included talazoparib area under the plasma concentration-time curve from 0 h to infinity (AUCinf; single dose) and during the dosing interval ([NT], multiple dosing); maximum observed plasma concentration (Cmax); lowest plasma concentration observed during the dosing interval (Cmin); elimination half-life (t1/2); time to Cmax (Tmax); ratio of [NT] after multiple doses/[NT] after single dose (Rac); and ratio of [NT] after multiple doses/AUCinf after single dose (Rss). PK parameters were calculated for each patient using non-compartmental analysis of plasma concentration-time data. Blood samples were collected pre-dose on Day -7, and on Days 1, 15, and 22 of Cycle 1, and Day 1 of Cycles 3 and 4. Post-dose blood samples were also collected at 0.5, 0.75, 1, 2, 3, 4, 6, 8, 10, and 24 h (Day -7 and Day 22 of Cycle 1 only) and at 48, 72, and 96 h (Day -7 only). […] PK parameters and safety data were summarized descriptively.

[5] = tested on: locally advanced or metastatic solid tumors; test: Phase 1 study: antitumor activity, investigator assessment (RECIST v.1.1); type: in vivo, human (Japanese patients)
Method: Antitumor activity was evaluated using radiological tumor assessments of all known or suspected disease sites. Imaging could include chest, abdomen, and pelvis computed tomography (CT) or magnetic resonance imaging (MRI) scans. Brain scans and bone scans were performed at baseline if disease was suspected and during the study as appropriate. CT or MRI scans were conducted at baseline (screening visit), on Day 1 (±7 days) of Cycle 2, and every other cycle thereafter, whenever disease progression was suspected, and at the time of withdrawal from treatment (if not performed within 6 weeks). Tumor response (unconfirmed) was assessed using Response Evaluation Criteria in Solid Tumors (RECIST) v.1.1, and included best overall response (complete response [CR], partial response [PR], stable disease [SD], progressive disease [PD], and non-CR/non-PD), objective response, defined as the sum of CR and PR, and overall disease control rate, defined as the sum of CR, PR, SD, and non-CR/non-PD.

[6] = 0.75 mg QD oral, N = 3, listed as talazoparib
[7] = 1 mg QD oral, N = 6, listed as talazoparib
[8] = plasma, multiple dose 0.75 mg QD oral, N = 3

SMILES: Cn1ncnc1[C@H]1c2n[nH]c(=O)c3cc(F)cc(c23)N[C@@H]1c1ccc(F)cc1 [Talazoparib, talazoparib]
- PARP-trapping potential relative to other PARP inhibitors (PARP on DNA): approximately 100 times greater
- Patients discontinued due to anemia [1]: 0.7%
- Patients discontinued due to hematologic toxicities [1]: 1.4%
- TEAE leading to death ([3]; 0.75 mg QD oral, N = 3): 0 n (%)
- TEAE leading to death ([3]; 1 mg QD oral, N = 6): 0 n (%)
- Dose reduction due to TEAE ([3]; human, in vivo): 1 (11.1) n (%)
- TEAE leading to death ([3]; total, 0.75 and 1 mg QD, N = 9): 0 n (%)
- Dose proportionality of drug exposure (Cmax and AUC) ([4]; 1 mg dose level compared with 0.75 mg dose level): slightly higher than dose-proportional
- Cmax ([4]; human, plasma, po, 0.75 mg, multiple dose 0.75 mg QD oral, N = 3): 14.4 ng/mL
- half-life ([4]; human, plasma, po, 0.75 mg, plasma, single dose 0.75 mg oral, N = 3, mean (standard deviation)): 56.6 h
- Tmax ([4]; human, plasma, po, 0.75 mg, plasma, single dose 0.75 mg oral, N = 3, read-out: Tmax): 0.98 h
- Cmax ([4]; human, plasma, po, 0.75 mg, single dose 0.75 mg oral, N = 3): 7.24 ng/mL
- Cmax ([4]; human, plasma, po, 1 mg, multiple dose 1 mg QD oral, N = 6): 32.8 ng/mL
- Tmax ([4]; human, plasma, po, 1 mg, plasma, multiple dose 1 mg QD oral, N = 6, read-out: Tmax): 1.03 h
- half-life ([4]; human, plasma, po, 1 mg, plasma, single dose 1 mg oral, N = 6, mean (standard deviation)): 50.7 h
- Tmax ([4]; human, plasma, po, 1 mg, plasma, single dose 1 mg oral, N = 6, read-out: Tmax): 0.97 h
- Cmax ([4]; human, plasma, po, 1 mg, single dose 1 mg oral, N = 6): 13.8 ng/mL
- AUC ([4]; human, plasma, multiple dose 0.75 mg QD oral, N = 3): 127 ng·h/mL
- AUC ([4]; human, plasma, multiple dose 1 mg QD oral, N = 6): 245 ng·h/mL
- AUC(0-inf) ([4]; human, plasma, single dose 0.75 mg oral, N = 3): 108 ng·h/mL
- AUC(0-inf) ([4]; human, plasma, single dose 1 mg oral, N = 6): 200 ng·h/mL
- Cmin [4, 8]: 2.18 (8) ng/mL
- Tmax [4, 8]: 1.02 (1.0–1.9) h
- Cmin ([4]; plasma, multiple dose 1 mg QD oral, N = 6): 3.65 (49) ng/mL
- t1/2 (terminal half-life) ([4]; plasma, single dose 1 mg oral, N = 6, mean (standard deviation)): 50.73 (10.1) h
- Time to peak of mean plasma concentrations ([4]; single or multiple dosing at 0.75 mg QD or 1 mg QD): around 1 h
- Best overall response (unconfirmed): CR ([5]; 0.75 mg QD oral, N = 3): 0 n (%)
- Best overall response (unconfirmed): Non-CR/non-PD ([5]; 0.75 mg QD oral, N = 3): 1 (33.3) n (%)
- Best overall response (unconfirmed): PD ([5]; 0.75 mg QD oral, N = 3): 2 (66.7) n (%)
- Best overall response (unconfirmed): PR ([5]; 0.75 mg QD oral, N = 3): 0 n (%)
- Best overall response (unconfirmed): SD ([5]; 0.75 mg QD oral, N = 3): 0 n (%)
- Disease control (CR + PR + SD + non-CR/non-PD) ([5]; 0.75 mg QD oral, N = 3): 1 (33.3) n (%)
- Objective response (CR + PR) ([5]; 0.75 mg QD oral, N = 3): 0 n (%)
- Best overall response (unconfirmed): CR ([5]; 1 mg QD oral, N = 6): 0 n (%)
- Best overall response (unconfirmed): Non-CR/non-PD ([5]; 1 mg QD oral, N = 6): 1 (16.7) n (%)
- Best overall response (unconfirmed): PD ([5]; 1 mg QD oral, N = 6): 3 (50.0) n (%)
- Best overall response (unconfirmed): PR ([5]; 1 mg QD oral, N = 6): 0 n (%)
- Best overall response (unconfirmed): SD ([5]; 1 mg QD oral, N = 6): 2 (33.3) n (%)
- Disease control (CR + PR + SD + non-CR/non-PD) ([5]; 1 mg QD oral, N = 6): 3 (50.0) n (%)
- Objective response (CR + PR) ([5]; 1 mg QD oral, N = 6): 0 n (%)
- Overall disease control rate (CR + PR + SD + non-CR/non-PD) ([5]; all 9 patients, 0.75 and 1 mg QD, unconfirmed responses): 44.4%
- Best overall response (unconfirmed): CR ([5]; total, 0.75 and 1 mg QD, N = 9): 0 n (%)
- Best overall response (unconfirmed): Non-CR/non-PD ([5]; total, 0.75 and 1 mg QD, N = 9): 2 (22.2) n (%)
- Best overall response (unconfirmed): PD ([5]; total, 0.75 and 1 mg QD, N = 9): 5 (55.6) n (%)
- Best overall response (unconfirmed): PR ([5]; total, 0.75 and 1 mg QD, N = 9): 0 n (%)
- Best overall response (unconfirmed): SD ([5]; total, 0.75 and 1 mg QD, N = 9): 2 (22.2) n (%)
- Disease control (CR + PR + SD + non-CR/non-PD) ([5]; total, 0.75 and 1 mg QD, N = 9): 4 (44.4) n (%)
- Objective response (CR + PR) ([5]; total, 0.75 and 1 mg QD, N = 9): 0 n (%)
